≈ marks a conversion by molar mass, not a printed value.
Columns and labels:
[1] = Cytotoxicity against MDCK cells incubated for 72 hrs by CCK-8 assay; format: toxicity, cell-based, Canis lupus familiaris; conditions: dog
Matrix protein 2 [2] = target: T1, Matrix protein 2 (Influenza A virus, UniProt P06821); format: cell-based, A/Udorn/72, Oocyte
Matrix protein 2 [3] = target: T1, Matrix protein 2; format: cell-based, Oocyte
Influenza A virus [4] = format: functional, organism-based; conditions: A/WSN/33 (H1N1), MDCK, 48 h
[5] = Cytotoxicity against MDCK cells incubated for 24 hrs by neutral red uptake assay; format: toxicity, cell-based, Canis lupus familiaris; conditions: dog
Influenza A virus [6] = format: functional, organism-based; conditions: A/WSN/33 (H1N1), MDCK, 48 h; remark: listed apart in the source
Influenza A virus [7] = format: functional, organism-based; conditions: H5N1 (A/chicken/Hubei/327/2004), MDCK
Influenza A virus [8] = assay: Antiviral activity against influenza A virus A/hanfang/359/95 (H3N2); format: functional, organism-based
[9] = Cytotoxicity against MDCK cells; format: toxicity, cell-based, Canis lupus familiaris; conditions: dog
Influenza A virus [10] = format: functional, organism-based; conditions: H1N1 (A/Hongkong/68), MDCK, 24 h
[11] = Selectivity index, ratio of CC50 for MDCK cells to IC50 for influenza A virus A/hanfang/359/95 (H3N2); format: toxicity; conditions: dog, read-out: Ratio CC50/IC50
Influenza A virus [12] = format: functional, organism-based; conditions: H1N1 (A/California/7/2009), MDCK, 72 h
Influenza A virus [13] = format: functional, organism-based; conditions: H3N2 (A/Perth/10/2007), MDCK, 72 h
[14] = Cytotoxicity against MDCK cells measured after 3 days by MTT assay; format: toxicity, cell-based, Canis lupus familiaris; conditions: dog, time 3 day

T1 sequence (P06821 whole entry): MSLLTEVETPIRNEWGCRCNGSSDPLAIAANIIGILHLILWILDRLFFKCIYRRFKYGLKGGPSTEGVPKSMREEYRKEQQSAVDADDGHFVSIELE

For `C[C@H]1[C@H](N)C[C@@H]2C[C@H]1C2(C)C`, the CC50 at 72 h [1] was greater than 300 µM.
In the case of `NC1CCC2(CCCCC2)CC1` [listing 1 of 2 here], the IC50 (Matrix protein 2 [2]) is reported as 12.6 µM.
Compound `NC1CCC2(CCCCC2)CC1` [listing 2 of 2 here] has an IC50 (Matrix protein 2 [3]) of 12.6 µM.
In the case of `C1CCC2(CC1)CCNCC2`, the IC50 (Matrix protein 2 [2]) is reported as 0.9 µM.
In the case of `NC1CC[Si]2(CCCC2)CC1`, the IC50 (Matrix protein 2 [3]) is reported as 7.8 µM.
Work on `NC1CC[Si]2(CCCCC2)CC1` yielded an IC50 (Matrix protein 2 [3]) of 13.7 µM.
For `NC1CCC2(CCCC2)CC1` [listing 1 of 2 here], the IC50 (Matrix protein 2 [3]) was 3.3 µM.
`NC1CCC2(CCCC2)CC1` [listing 2 of 2 here] showed an IC50 (Matrix protein 2 [2]) of 3.3 µM.
Compound `CC1(C)[C@@H]2CC[C@@]1(C)[C@@H](CN)C2` has a CC50 at 72 h [1] greater than 300 µM.
With `c1c(CNC23CC4CC(CC(C4)C2)C3)noc1C1CC1` the EC50 (Influenza A virus [4]) was 0.49 µM.
`NC1CCC2(CC1)C1CC3CC(C1)CC2C3` (centres undefined) gave a CC50 at 24 h [5] of 27.6 µM.
For `OC12CC3CC(C1)CC(NCc1cnc(N4CCCCC4)nc1)(C3)C2`, the EC50 (Influenza A virus [6]) was 4.3 µM.
Compound `OC12CC3CC(C1)CC(NCc1ccc(N4CCCCCC4)cn1)(C3)C2` has an EC50 (Influenza A virus [6]) of 2.7 µM.
Work on `c1nc(N2CCCCCC2)ncc1CNC12CC3CC(CC(C3)C1)C2` yielded an EC50 (Influenza A virus [6]) of 0.7 µM.
`[C-]#[N+]C1C2CC3CC(C2)CC1C3` (centres undefined) showed an EC50 (Influenza A virus [7]) of 9.8 µM.
For `O=C(CCC[C@@H]1[C@H]2CCCN3CCC[C@@H](CN1S(=O)(=O)c1ccc(C(F)(F)F)cc1)[C@@H]23)OCCC12CC3CC(CC(C3)C1)C2`, the IC50 (Influenza A virus [8]) was 16.9 µM.
For `NC1CCCC2(CCCCCC2)CC1` (centres undefined), the IC50 (Matrix protein 2 [2]) was 8.7 µM.
Work on `O=C(CCC[C@@H]1[C@H]2CCCN3CCC[C@@H](CN1S(=O)(=O)c1ccccc1)[C@@H]23)OCC12CC3CC(CC(C3)C1)C2` yielded an IC50 (Influenza A virus [8]) of 16.3 µM.
Compound `CC(NC(=O)c1csc(CN)n1)C12CC3CC(CC(C3)C1)C2` (centres undefined) has a CC50 [9] of 50 µg/mL and an IC50 (Influenza A virus [10]) of 0.11 µg/mL (≈ 0.344 µM).
With `O=C(CCC[C@@H]1[C@H]2CCCN3CCC[C@@H](CN1S(=O)(=O)c1cccc(C(F)(F)F)c1)[C@@H]23)OCC12CC3CC(CC(O)(C3)C1)C2` the IC50 (Influenza A virus [8]) was 11.1 µM.
Compound `O=C(CCC[C@@H]1[C@H]2CCCN3CCC[C@@H](CN1S(=O)(=O)c1ccc(C(F)(F)F)cc1)[C@@H]23)OCC12CC3CC(CC(C3)C1)C2` has an IC50 (Influenza A virus [8]) of 21.1 µM.
Compound `Brc1cc(CNC23CC4CC(CC(C4)C2)C3)cs1` has an EC50 (Influenza A virus [4]) of 2.2 µM.
In the case of `NCC1CCC2(CCCCC2)CC1`, the IC50 (Matrix protein 2 [2]) is reported as 8.9 µM.
`[C-]#[N+]c1c(C)cc(C(C)(C)C)cc1C` showed an EC50 (Influenza A virus [7]) of 0.24 µM.
With `CC(N)[C@H]1C[C@H]2CC[C@]1(C)C2(C)C` (some centres undefined) the CC50 at 72 h [1] was greater than 300 µM.
Compound `O=C(CCC[C@@H]1[C@H]2CCCN3CCC[C@@H](CN1S(=O)(=O)c1ccc(C(F)(F)F)cc1)[C@@H]23)OCC12CC3CC(CC(O)(C3)C1)C2` has an IC50 (Influenza A virus [8]) of 9.53 µM.
`CC(N)C1CCC2(CCCCC2)CC1` (centres undefined) gave an IC50 (Matrix protein 2 [2]) of 16 µM.
Work on `Cc1ccc(S(=O)(=O)N2C[C@@H]3CCCN4CCC[C@@H]([C@H]34)[C@H]2CCCC(=O)OCC23CC4CC(CC(C4)C2)C3)cc1` yielded an IC50 (Influenza A virus [8]) of 16.2 µM.
`c1nc(N2CCCCC2)ncc1CNC12CC3CC(CC(C3)C1)C2` gave an EC50 (Influenza A virus [6]) of 1.5 µM.
Work on `C[Si]1(C)CCCNCC1` yielded an IC50 (Matrix protein 2 [3]) of 19.4 µM.
For `CC1(C)CCC(N)CC1`, the IC50 (Matrix protein 2 [3]) was 2.4 µM.
Compound `C[Si]1(C)CCC(N)CC1` has an IC50 (Matrix protein 2 [3]) of 2.6 µM.
In the case of `[C-]#[N+][C@@H]1C[C@@H]2C[C@H]([C@H]1C)C2(C)C`, the EC50 (Influenza A virus [7]) is reported as 7.36 µM.
`c1nc(N2CCCCCC2)cnc1CNC12CC3CC(CC(C3)C1)C2` showed an EC50 (Influenza A virus [6]) of 1.9 µM.
In the case of `O=C(CCC[C@@H]1[C@H]2CCCN3CCC[C@@H](CN1S(=O)(=O)c1cccc(C(F)(F)F)c1)[C@@H]23)OCC12CC3CC(CC(C3)C1)C2`, the CC50 [9] is reported as 47.8 µM, the selectivity ratio [11] is reported as 9.31 and the IC50 (Influenza A virus [8]) is reported as 5.14 µM.
`[C-]#[N+]C(C)C12CC3CC(CC(C3)C1)C2` (centres undefined) gave an EC50 (Influenza A virus [7]) of 0.24 µM.
For `CC1(C)CCCNCC1`, the IC50 (Matrix protein 2 [3]) was 26.1 µM.
In the case of `NC1CCCC2(CCCCC2)CC1` (centres undefined), the IC50 (Matrix protein 2 [2]) is reported as 13.2 µM.
`NC1CCC2(CCCCCC2)CC1` showed an IC50 (Matrix protein 2 [2]) of 13 µM.
In the case of `[C-]#[N+]C(C)(C)CC(C)(C)C`, the EC50 (Influenza A virus [7]) is reported as 3.88 µM.
With `C[Si]1(C)CCC(CN)CC1` the IC50 (Matrix protein 2 [3]) was 5.7 µM.
In the case of `OC12CC3CC(C1)CC(NCc1ccc(N4CCCCCCC4)cn1)(C3)C2`, the EC50 (Influenza A virus [6]) is reported as 7.9 µM.
In the case of `[C-]#[N+]C12CC3CC(CC(C3)C1)C2`, the EC50 (Influenza A virus [7]) is reported as 0.487 µM.
In the case of `CC[C@@H](C(=O)[C@@H](C)[C@@H](O)[C@H](C)[C@@H]1O[C@@H]([C@@H](CC)C(=O)O)CC[C@@H]1C)[C@H]1O[C@]2(C=C[C@@H](O)[C@]3(CC[C@@](C)([C@H]4CC[C@](O)(CC)[C@H](C)O4)O3)O2)[C@H](C)C[C@@H]1C` [SALINOMYCIN], the EC50 (Influenza A virus [12]) is reported as 1.9 µM, the EC50 (Influenza A virus [13]) is reported as 2.6 µM and the CC50 at 72 h [14] is reported as 35.6 µM.
